Source: patent US8546435B2, “Triazole derivatives with improved receptor activity and bioavailability properties as ghrelin antagonists of growth hormone secretagogue receptors” (AEterna Zentaris GmbH, priority 2010, dated 2013)
Read-outs that look alike come from different tables or passages of the source.

Columns and labels:
[1] = target: T1, Human Ghrelin Receptor (GHS-R 1A) (Homo sapiens (Human), UniProt Q92847); assay: Calcium release, antagonist; format: cell-based; conditions: 15 minutes preincubation, then ghrelin
Description: (§1) Mouse LTK-cells (ATCC CCL-1.3) were stably transfected with a plasmid containing the CMV minimal promoter (CMVmin) linked to three cAMP response elements (CRE) followed by a luciferase reporter gene. Based on this parental cell line, single cell clones stably overexpressing the human, rat or mouse GHS-R 1A have been established and characterized with respect to suitability for the different assay formats.
(§2) For determination of calcium release the respective cell line was loaded with Fluo-4 NW Calcium Assay Kit (Moleculare Probes/Invitrogen # F10741) for 80 min @ 37° C. After 15 minutes of preincubation with different concentrations of the test compounds ghrelin was added and the signal was monitored for 60 seconds by a FlexStation3 microplate reader (Molecular Devices).
(§3) IC50 values were determined by using the GraphPad Prism analysis program (GraphPad Software).
(§4) Values given are either single measurements or mean values of up to nine independent experiments performed in duplicate (binding) or quadruplicate (functional assays) measurements.

[2] = target: T1, Human Ghrelin Receptor (GHS-R 1A); assay: CRE/Luc reporter gene assay, antagonist; format: cell-based; conditions: 6 h, 1 μM rolipram
Description: as §1
For the CRE/Luc reporter gene assay, the mouse LTK-cells stably expressing the human GHS-1RA and a luciferase reporter gene under the control of CRE elements and the CMV minimal promoter were incubated for 6 h with 1 μM rolipram in the presence of different concentrations of AEZS-130. Subsequently, cells were lysed and ATP bioluminescence was measured in the luminescence mode on FlexStation3 (Molecular Devices).
as §3, §4

[3] = target: CYP3A4 (Homo sapiens (Human), UniProt P08684); assay: CYP3A4 inhibition in human liver microsomes, direct and metabolism-dependent; format: in vitro ADME
Experimental: Direct and metabolism-dependent inhibition of CYP enzymes are assessed with specific marker substrates by a HPLC-based UV detection method in human liver microsomes. Incubations are carried out as doublets with final concentrations ranging from 0.01 to 200 μM (30 min, 37° C.). Metabolism-dependent inhibition was assessed by incubation for 30 minutes in the presence of NADPH prior to the addition of marker substrate to allow the generation of metabolites. Percent inhibition is plotted against concentration to calculate or extrapolate IC50 values from the sigmoid curve.

[4] = target: T1, Human Ghrelin Receptor (GHS-R 1A); assay: Competitive binding, iodinated ghrelin tracer, intact LTK-cells overexpressing GHS-R 1A; conditions: 60 min at 37° C.
Description: as §1
For receptor competitive binding studies, iodinated ghrelin was used as a tracer at conditions of about 80% saturation binding. Different concentrations of the test compounds were analyzed for displacement of the tracer. For this purpose, the suspension of intact cells plus tracer mix and different test compound concentrations was layered on top of silicon/paraffin oil, incubated for 60 min at 37° C. and subjected to centrifugation. After freezing in liquid nitrogen the cell pellets were separated from the supernatant by cutting the tubes in the intermediate silicon/paraffin oil section and analyzed by γ-radiation analysis. The amount of unspecific binding was determined by including unlabeled ghrelin at 1 μM final concentration.
as §3, §4

[5] = CaCo-2 permeability assay; format: in vitro ADME; conditions: human; for Papp A→B at 2 h: a to b, read-out: CaCo-2 Assay Papp ab; for Papp A→B at 2 h / Papp B→A at 2 h: 3 or 5 μM, 2 hours at 37° C.; for Papp B→A at 2 h: b to a, read-out: CaCo-2 Assay Papp ba; for efflux ratio at 2 h: read-out: CaCo-2 Assay ba/ab
Experimental: For the CaCo-2 permeability assay 80.000 CaCo-2 cells (ATCC HTB-37) were seeded in DMEM supplemented with 10% FCS, 1% Penicillin/Streptomycin and 1% non-essential amino acids per 24 well transwell plate (Corning 3397) and were grown for 21 days by changing the media every second day. On day 21 the medium was replaced by HBSS buffer (Invitrogen #14065) supplemented with 0.25% and 1% BSA for the donor and acceptor compartment, respectively. The compounds were added to the respective donor compartment in a concentration of 3 or 5 μM and were incubated for 2 hours at 37° C. The respective compound concentrations were determined by LC-MS analytics using an API 2000. Data analysis was performed as described by Sun and Pang 2008, Drug Metabolism and Disposition 36, 102-123.

[6] = target: Mouse Ghrelin Receptor (GHS-R 1A) (Mus musculus (Mouse), UniProt Q99P50); assay: Calcium release, antagonist; format: cell-based; conditions: 15 minutes preincubation, then ghrelin; read-out: Mouse Ghrelin Receptor Antagonist Calcium Release IC50
Description: as §1, §2, §3
(§5) In the following table 1 results obtained for selected compounds of the invention are presented in comparison to compound 50 disclosed in WO07/020,013. Values given are either single measurements or mean values of up to nine independent experiments performed in duplicate (binding) or quadruplicate (functional assays) measurements.

[7] = target: Rat Ghrelin Receptor (GHS-R 1A) (Rattus norvegicus (Rat), UniProt O08725); assay: Calcium release, antagonist; format: cell-based; conditions: 15 minutes preincubation, then ghrelin; read-out: Rat Ghrelin Receptor Antagonist Calcium Release IC50
Description: as §1, §2, §3, §5

[8] = Stability in liver microsomes; format: in vitro ADME, rat; conditions: @37° C./1 mg/ml Liver Microsomes, 10 μM
Experimental: Metabolic stability in liver microsomes of different species (in the presence of NADPH, 1 mg/ml microsomal protein) was evaluated at 37° C. over time in triplicates at a test concentration of 10 μM. Loss of parent compound is measured by an HPLC-based UV detection method. For prediction of rat hepatic clearance half-lives (t1/2) were fitted from first-order rate constant k (min^−1) obtained from the slope of time versus In % remaining.

[9] = target: hERG channel (Homo sapiens (Human), UniProt Q12809); assay: Predictor hERG Fluorescence Polarization Assay; format: binding
Description: The Predictor™ hERG Fluorescence Polarization Assay (Invitrogen, Karlsruhe, GER) determines whether test compounds block the hERG channel [Piper, D. R. et al., Assay Drug Dev Technol. 2008, 6(2):213-23]. The assay uses a membrane fraction containing hERG channel protein (Predictor™ hERG Membrane) and a high-affinity red fluorescent hERG channel ligand, or “tracer” (Predictor™ hERG Tracer Red), in a homogenous, fluorescence polarization (FP)-based format. Compounds that bind to the hERG channel protein (competitors) are identified by their ability to displace the tracer, resulting in a lower fluorescence polarization. The assay was performed according to guidelines of the manufacturer

[10] = target: MDR-1 (P-glycoprotein, Pgp) (Homo sapiens (Human), UniProt P08183); assay: Inhibition of MDR1 ATPase (Pgp-Glo assay, SF9 membrane preparations); format: biochemical
Experimental: For detection of MDR-1 (P-glycoprotein, Pgp) ATPase activity commercially available membrane preparations of MDR-1 overexpressing SF9 insect cells (SB-MDR1-Sf9-ATPase Membrane; 2.5 mg/500 μL; Solvo/tebu-bio #168SB-MDR1-Sf9-ATPase) were used. Since transport by MDR-1 is ATP-dependent, ATP consumption indicates transport activity of MDR-1. ATP consumption is detected as a decrease in luminescence from a second reaction with a recombinant firefly luciferase by using the Pgp-Glo™ Assay Kit (Promega # V3591).

[11] = marker substrate testosteron, 30 minutes preincubation with NADPH, read-out: CYP3A4 Inhibition Testosteron Preincubation EC50
[12] = marker substrate testosteron, direct inhibition, human liver microsomes, read-out: CYP3A4 Inhibition Testosteron EC50

Chain of hERG channel (Q12809 whole entry): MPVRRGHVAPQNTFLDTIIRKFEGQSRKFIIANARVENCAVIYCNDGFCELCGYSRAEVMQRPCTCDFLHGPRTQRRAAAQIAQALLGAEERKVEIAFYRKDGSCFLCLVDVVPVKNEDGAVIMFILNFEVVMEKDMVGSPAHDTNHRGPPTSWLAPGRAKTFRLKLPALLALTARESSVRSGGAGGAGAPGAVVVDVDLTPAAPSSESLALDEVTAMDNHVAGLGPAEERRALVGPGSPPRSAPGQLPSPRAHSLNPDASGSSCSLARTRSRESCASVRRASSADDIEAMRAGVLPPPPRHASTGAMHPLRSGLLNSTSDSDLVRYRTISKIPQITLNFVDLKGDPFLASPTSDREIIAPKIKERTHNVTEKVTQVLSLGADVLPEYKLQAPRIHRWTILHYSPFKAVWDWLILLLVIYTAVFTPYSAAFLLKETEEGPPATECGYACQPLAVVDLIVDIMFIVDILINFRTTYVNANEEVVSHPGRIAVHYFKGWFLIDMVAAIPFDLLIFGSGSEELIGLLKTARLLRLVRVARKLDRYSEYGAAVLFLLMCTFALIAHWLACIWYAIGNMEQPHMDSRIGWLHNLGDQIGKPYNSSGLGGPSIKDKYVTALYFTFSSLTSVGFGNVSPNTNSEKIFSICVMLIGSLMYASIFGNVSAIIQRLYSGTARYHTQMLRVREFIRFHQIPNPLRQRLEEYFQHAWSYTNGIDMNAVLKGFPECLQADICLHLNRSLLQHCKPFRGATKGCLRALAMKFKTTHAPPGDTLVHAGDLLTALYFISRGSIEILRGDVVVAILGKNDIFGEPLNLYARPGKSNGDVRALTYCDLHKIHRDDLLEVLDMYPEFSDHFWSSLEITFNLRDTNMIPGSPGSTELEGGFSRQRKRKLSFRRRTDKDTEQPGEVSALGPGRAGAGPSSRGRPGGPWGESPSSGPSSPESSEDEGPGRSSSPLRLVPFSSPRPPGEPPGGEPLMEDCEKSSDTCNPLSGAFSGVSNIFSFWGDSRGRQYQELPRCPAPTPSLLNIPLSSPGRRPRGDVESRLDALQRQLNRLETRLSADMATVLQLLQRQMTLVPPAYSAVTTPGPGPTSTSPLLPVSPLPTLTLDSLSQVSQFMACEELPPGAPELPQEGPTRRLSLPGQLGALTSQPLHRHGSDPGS
Chain of MDR-1 (P-glycoprotein, Pgp) (P08183 whole entry): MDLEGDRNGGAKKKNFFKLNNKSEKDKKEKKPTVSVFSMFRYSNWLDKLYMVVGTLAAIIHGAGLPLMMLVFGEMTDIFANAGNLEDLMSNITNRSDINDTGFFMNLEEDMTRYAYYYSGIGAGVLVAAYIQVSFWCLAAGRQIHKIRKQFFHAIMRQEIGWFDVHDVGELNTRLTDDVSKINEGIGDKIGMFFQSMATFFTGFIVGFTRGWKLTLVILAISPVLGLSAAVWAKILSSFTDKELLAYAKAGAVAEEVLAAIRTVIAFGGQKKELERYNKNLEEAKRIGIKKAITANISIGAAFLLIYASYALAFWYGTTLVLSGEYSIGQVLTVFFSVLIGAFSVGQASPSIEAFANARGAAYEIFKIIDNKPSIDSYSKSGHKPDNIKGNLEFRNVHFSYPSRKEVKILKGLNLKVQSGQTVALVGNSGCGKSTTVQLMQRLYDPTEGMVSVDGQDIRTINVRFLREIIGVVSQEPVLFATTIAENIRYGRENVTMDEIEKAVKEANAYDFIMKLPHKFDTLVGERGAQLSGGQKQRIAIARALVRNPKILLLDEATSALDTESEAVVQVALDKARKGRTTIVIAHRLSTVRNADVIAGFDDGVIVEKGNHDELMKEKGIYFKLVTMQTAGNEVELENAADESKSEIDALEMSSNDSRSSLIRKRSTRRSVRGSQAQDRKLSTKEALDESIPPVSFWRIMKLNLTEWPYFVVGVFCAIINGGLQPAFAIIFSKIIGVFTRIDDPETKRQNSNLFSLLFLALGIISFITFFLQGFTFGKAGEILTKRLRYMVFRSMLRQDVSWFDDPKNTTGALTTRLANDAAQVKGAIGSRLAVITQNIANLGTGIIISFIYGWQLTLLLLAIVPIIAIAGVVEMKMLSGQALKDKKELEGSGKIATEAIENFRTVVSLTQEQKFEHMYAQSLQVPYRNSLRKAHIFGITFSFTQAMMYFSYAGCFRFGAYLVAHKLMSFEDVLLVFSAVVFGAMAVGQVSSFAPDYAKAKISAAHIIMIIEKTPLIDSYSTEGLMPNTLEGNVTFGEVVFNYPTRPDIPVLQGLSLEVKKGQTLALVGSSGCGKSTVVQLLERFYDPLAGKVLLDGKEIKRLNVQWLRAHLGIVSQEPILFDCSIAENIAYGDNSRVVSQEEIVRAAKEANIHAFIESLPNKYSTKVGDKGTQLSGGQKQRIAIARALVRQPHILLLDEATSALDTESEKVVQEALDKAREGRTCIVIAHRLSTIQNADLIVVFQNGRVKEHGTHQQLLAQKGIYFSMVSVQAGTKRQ
Chain of CYP3A4 (P08684 whole entry): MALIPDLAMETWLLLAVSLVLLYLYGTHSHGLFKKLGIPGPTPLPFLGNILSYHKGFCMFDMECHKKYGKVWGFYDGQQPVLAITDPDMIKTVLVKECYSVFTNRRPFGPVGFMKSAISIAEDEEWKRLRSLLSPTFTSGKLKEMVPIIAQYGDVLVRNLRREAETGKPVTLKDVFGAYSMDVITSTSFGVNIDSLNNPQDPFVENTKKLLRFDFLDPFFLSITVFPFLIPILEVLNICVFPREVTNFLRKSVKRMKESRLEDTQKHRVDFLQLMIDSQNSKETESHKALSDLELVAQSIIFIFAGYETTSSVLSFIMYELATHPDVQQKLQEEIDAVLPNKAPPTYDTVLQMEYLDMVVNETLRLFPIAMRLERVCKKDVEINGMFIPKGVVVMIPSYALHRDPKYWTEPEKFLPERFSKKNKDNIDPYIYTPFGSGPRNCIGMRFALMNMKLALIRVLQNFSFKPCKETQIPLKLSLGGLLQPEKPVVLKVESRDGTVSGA
T1 sequence (Q92847 whole entry): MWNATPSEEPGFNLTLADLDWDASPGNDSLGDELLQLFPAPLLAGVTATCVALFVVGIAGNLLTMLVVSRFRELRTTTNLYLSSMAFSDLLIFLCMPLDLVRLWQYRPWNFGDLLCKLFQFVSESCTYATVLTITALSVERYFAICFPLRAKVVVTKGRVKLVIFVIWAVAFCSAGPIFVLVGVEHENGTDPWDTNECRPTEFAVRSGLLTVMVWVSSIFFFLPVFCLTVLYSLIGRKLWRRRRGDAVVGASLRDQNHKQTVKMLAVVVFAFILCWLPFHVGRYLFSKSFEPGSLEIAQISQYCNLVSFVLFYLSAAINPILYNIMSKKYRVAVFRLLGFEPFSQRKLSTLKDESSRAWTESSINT
Chain of Mouse Ghrelin Receptor (GHS-R 1A) (Q99P50 whole entry): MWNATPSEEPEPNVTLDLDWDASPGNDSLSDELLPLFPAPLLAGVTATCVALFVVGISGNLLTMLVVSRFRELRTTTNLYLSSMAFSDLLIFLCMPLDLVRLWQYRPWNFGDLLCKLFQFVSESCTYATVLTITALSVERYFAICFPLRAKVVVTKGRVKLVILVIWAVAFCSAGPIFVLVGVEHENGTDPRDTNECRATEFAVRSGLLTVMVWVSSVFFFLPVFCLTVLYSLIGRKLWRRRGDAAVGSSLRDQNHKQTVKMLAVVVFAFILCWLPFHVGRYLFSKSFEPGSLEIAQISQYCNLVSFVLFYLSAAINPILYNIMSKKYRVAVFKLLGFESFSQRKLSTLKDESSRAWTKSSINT
Chain of Rat Ghrelin Receptor (GHS-R 1A) (O08725 whole entry): as the sequence (Q99P50 whole entry) above, with S30P, S249A counted along it

SMILES	IC50 [1]	IC50 [2]	EC50 ([3]; marker substrate midazolam, 30 minutes preincubation with NADPH, read-out: CYP3A4 Inhibition Midazolam Preincubation EC50)	EC50 ([3]; marker substrate midazolam, direct inhibition, human liver microsomes, read-out: CYP3A4 Inhibition Midazolam EC50)	IC50 [4]	Papp A→B at 2 h [5]	Papp B→A at 2 h [5]	efflux ratio at 2 h [5]	IC50 [6]	IC50 [7]	Stability in Liver Microsomes Rat % Remaining after 1 h Incubation [8]	hERG Predictor EC50 [9]	EC50 [10]	EC50 [3, 11]	EC50 [3, 12]	Inhibition of MDR1 ATPase EC50 [10]
CCOC(=O)Cc1nnc([C@@H](Cc2c[nH]c3ccccc23)NC(=O)c2cccnc2)n1Cc1ccc(OC)cc1 [Cpd 1, [5-{(R)-2-(1H-Indol-3-yl)-1-[(pyridine-3-carbonyl)-amino]-ethyl}-4-(4-methoxy-benzyl)-4H-[1,2,4]triazol-3-yl]-acetic acid ethyl ester]	3 nM	12.8 nM														
COc1ccc(Cn2c([C@@H](Cc3c[nH]c4ccccc34)NC(C)=O)nnc2[C@@H](Cc2c[nH]c3ccccc23)NC(=O)c2ccccn2)cc1.O=C(O)C(F)(F)F [Cpd 3, Pyridine-2-carboxylic acid [(R)-1-[5-[(R)-1-acetylamino-2-(1H-indol-3-yl)-ethyl]-4-(4-methoxy-benzyl)-4H-[1,2,4]triazol-3-yl]-2-(1H-indol-3-yl)-ethyl]-amide]	2.5 nM	2.2 nM	980 nM	3200 nM	0.6 nM	0.37 ± 0.02 ×10⁻⁶ cm/s	17.2 ± 0.42 ×10⁻⁶ cm/s	51.9	29.2 nM	29.9 nM	38.5%	no inhibition	38600 nM			
COc1ccc(Cn2c([C@@H](Cc3ccccc3)NC(C)=O)nnc2[C@@H](Cc2c[nH]c3ccccc23)NC(=O)CO)cc1.O=C(O)C(F)(F)F [Cpd 6, N-[(R)-1-[5-((R)-1-Acetylamino-2-phenyl-ethyl)-4-(4-methoxy-benzyl)-4H-[1,2,4]triazol-3-yl]-2-(1H-indol-3-yl)-ethyl]-2-hydroxy-acetamide]	2.1 nM	7.8 nM			3 nM						27.1%	no inhibition		1400 nM	34300 nM	no inhibition
COc1ccc(Cn2c([C@@H](Cc3ccccc3)NC(C)=O)nnc2[C@@H](Cc2c[nH]c3ccccc23)NC(=O)[C@@H]2CNCCO2)cc1.O=C(O)C(F)(F)F [Cpd 7, (S)-Morpholine-2-carboxylic acid [(R)-1-[5-((R)-1-acetylamino-2-phenyl-ethyl)-4-(4-methoxy-benzyl)-4H-[1,2,4]triazol-3-yl]-2-(1H-indol-3-yl)-ethyl]-amide]	3.8 nM	9.5 nM			3.4 nM						82.7%	no inhibition	1080 nM	1100 nM	27000 nM	
COc1ccc(Cn2c([C@@H](Cc3c[nH]c4ccccc34)NC(C)=O)nnc2[C@@H](Cc2c[nH]c3ccccc23)NC(=O)C(C)(C)N)cc1.O=C(O)C(F)(F)F [Cpd 8, N-[(R)-1-[5-[(R)-1-Acetylamino-2-(1H-indol-3-yl)-ethyl]-4-(4-methoxy-benzyl)-4H-[1,2,4]triazol-3-yl]-2-(1H-indol-3-yl)-ethyl]-2-amino-2-methyl-propionamide]	19.1 nM	22.4 nM			1.4 nM	0.08 ± 0.08 ×10⁻⁶ cm/s	0.74 ± 0.03 ×10⁻⁶ cm/s	9.25	363 nM	1050 nM	64.3%	no inhibition	196000 nM	900 nM	31200 nM	
COc1ccc(Cn2c([C@@H](Cc3c[nH]c4ccccc34)NC=O)nnc2[C@@H](Cc2c[nH]c3ccccc23)NC(=O)C(C)(C)N)cc1.O=C(O)C(F)(F)F [Cpd 9, 2-Amino-N-[(R)-1-[5-[(R)-1-formylamino-2-(1H-indol-3-yl)-ethyl]-4-(4-methoxy-benzyl)-4H-[1,2,4]triazol-3-yl]-2-(1H-indol-3-yl)-ethyl]-2-methyl-propionamide]	32.6 nM	58.6 nM			3.2 nM						54.8%	no full dose	836 nM	1500 nM	10000 to 30000 nM	
COc1ccc(Cn2c(CCc3c[nH]c4ccccc34)nnc2[C@@H](Cc2ccc3ccccc3c2)NC(=O)OC(C)(C)C)cc1.O=C(O)C(F)(F)F [Cpd 15, {(R)-1-[5-[2-(1H-Indol-3-yl)-ethyl]-4-(4-methoxy-benzyl)-4H-[1,2,4]triazol-3-yl]-2-naphthalen-2-yl-ethyl}-carbamic acid tert-butyl ester]	39.9 nM	24.9 nM			16.5 nM						37.8%		16300 nM			
